Reference: ChEMBL document CHEMBL5303573, “Mapping human microbiome drug metabolism by gut bacteria and their genes” (Nature, 2019)

How the values were obtained:
[1] = The drug is tested on Odoribacter splanchnicus strain: fecal isolate for biotransformation. The drug concentrations were measured before and after a 12-h incubation by liquid-chromatography-coupled mass spectrometry (LC–MS); settings: 2 µM
[2] = The drug is tested on Clostridium sp. strain: fecal isolate for biotransformation. The drug concentrations were measured before and after a 12-h incubation by liquid-chromatography-coupled mass spectrometry (LC–MS); settings: 2 µM
[3] = The drug is tested on Clostridium ramosum strain: DSM1402 for biotransformation. The drug concentrations were measured before and after a 12-h incubation by liquid-chromatography-coupled mass spectrometry (LC–MS); settings: thomasclavelia ramosa, 2 µM
[4] = The drug is tested on Coprococcus comes strain: ATCC27758 for biotransformation. The drug concentrations were measured before and after a 12-h incubation by liquid-chromatography-coupled mass spectrometry (LC–MS); type: ADME; parameters: dose 2 uM, timepoint 0 vs 12 hours; settings: 2 µM
[5] = The drug is tested on Subdoligranulum variabile strain: DSM15176 for biotransformation. The drug concentrations were measured before and after a 12-h incubation by liquid-chromatography-coupled mass spectrometry (LC–MS); settings: 2 µM
[6] = biological target: T1, Xylanase (Bacteroides thetaiotaomicron, UniProt Q8A8H5); assay: The drug is tested on Bacteroides thetaiotaomicron strain: VPI-5482 for biotransformation. The drug concentrations were measured before and after a 12-h incubation by liquid-chromatography-coupled mass spectrometry (LC–MS); type: ADME; parameters: dose 2 uM; settings: 2 µM
T1 sequence (Q8A8H5 whole entry): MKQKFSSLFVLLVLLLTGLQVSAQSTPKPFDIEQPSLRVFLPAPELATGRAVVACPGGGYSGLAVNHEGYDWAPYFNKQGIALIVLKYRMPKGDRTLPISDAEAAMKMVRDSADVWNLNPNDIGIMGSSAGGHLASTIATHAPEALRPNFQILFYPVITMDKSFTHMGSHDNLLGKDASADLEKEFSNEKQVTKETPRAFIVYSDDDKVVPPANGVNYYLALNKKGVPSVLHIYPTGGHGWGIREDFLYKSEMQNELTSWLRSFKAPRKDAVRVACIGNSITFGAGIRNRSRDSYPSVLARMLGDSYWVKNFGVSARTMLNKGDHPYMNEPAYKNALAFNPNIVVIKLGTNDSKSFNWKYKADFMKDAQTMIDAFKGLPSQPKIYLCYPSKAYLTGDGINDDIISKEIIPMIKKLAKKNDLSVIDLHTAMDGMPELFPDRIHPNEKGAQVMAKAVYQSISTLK

[7] = biological target: T2, Diguanylate cyclase (Collinsella aerofaciens, UniProt A4EB91); assay: (§1) The drug is tested on Collinsella aerofaciens strain: ATCC25986 for biotransformation. The drug concentrations were measured before and after a 12-h incubation by liquid-chromatography-coupled mass spectrometry (LC–MS); type: ADME; parameters: dose 2 uM; settings: 2 µM
T2 sequence (A4EB91 whole entry): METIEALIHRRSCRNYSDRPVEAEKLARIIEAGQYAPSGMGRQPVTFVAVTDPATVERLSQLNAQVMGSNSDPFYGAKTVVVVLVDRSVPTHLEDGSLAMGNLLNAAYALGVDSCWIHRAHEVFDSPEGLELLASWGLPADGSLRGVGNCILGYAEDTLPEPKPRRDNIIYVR

[8] = biological target: T3, Flavodoxin (Collinsella aerofaciens, UniProt A4ED08); assay: as §1; type: ADME; parameters: dose 2 uM; settings: 2 µM
T3 sequence (A4ED08 whole entry): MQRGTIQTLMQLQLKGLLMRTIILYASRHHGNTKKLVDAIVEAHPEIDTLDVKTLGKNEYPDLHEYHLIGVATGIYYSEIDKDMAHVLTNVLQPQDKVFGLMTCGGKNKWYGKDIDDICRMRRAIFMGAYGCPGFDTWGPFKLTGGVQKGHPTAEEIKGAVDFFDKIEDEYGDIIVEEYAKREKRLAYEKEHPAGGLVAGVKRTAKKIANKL

[9] = biological target: T4, GDSL-like protein (Collinsella aerofaciens, UniProt A4E7D0); assay: as §1; type: ADME; parameters: dose 2 uM; settings: 2 µM
T4 sequence (A4E7D0 whole entry): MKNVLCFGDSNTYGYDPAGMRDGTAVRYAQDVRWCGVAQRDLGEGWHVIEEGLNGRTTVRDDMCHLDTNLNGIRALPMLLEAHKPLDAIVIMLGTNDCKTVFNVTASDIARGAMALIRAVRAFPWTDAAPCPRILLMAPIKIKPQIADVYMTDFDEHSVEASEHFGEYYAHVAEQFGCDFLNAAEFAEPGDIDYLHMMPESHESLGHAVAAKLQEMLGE

[10] = biological target: T5, Pyridine nucleotide-disulfide oxidoreductase (Collinsella aerofaciens, UniProt A4EBM5); assay: as §1; type: ADME; parameters: dose 2 uM; settings: 2 µM
T5 sequence (A4EBM5 whole entry): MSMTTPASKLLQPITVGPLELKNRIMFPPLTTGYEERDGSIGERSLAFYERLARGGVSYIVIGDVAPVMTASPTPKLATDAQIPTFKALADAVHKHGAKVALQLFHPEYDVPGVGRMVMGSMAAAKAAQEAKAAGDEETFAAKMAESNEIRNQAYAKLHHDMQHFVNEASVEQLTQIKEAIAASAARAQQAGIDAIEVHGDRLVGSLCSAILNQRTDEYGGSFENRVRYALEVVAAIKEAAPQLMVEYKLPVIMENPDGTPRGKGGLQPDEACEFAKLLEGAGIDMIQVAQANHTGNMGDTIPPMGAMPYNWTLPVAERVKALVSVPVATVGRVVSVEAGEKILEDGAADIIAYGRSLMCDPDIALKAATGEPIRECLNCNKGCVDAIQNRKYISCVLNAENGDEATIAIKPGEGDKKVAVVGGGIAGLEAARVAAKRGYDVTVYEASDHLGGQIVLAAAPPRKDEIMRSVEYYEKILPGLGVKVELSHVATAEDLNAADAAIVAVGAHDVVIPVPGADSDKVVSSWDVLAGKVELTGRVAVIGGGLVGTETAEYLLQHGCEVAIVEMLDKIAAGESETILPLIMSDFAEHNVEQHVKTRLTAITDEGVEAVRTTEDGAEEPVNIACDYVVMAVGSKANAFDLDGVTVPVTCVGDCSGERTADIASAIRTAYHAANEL

[11] = bacteroides thetaiotaomicron, 12 h, 2 µM
Description: The drug is tested on Bacteroides thetaiotaomicron strain: 7330 for biotransformation. The drug concentrations were measured before and after a 12-h incubation by liquid-chromatography-coupled mass spectrometry (LC–MS)

[12] = akkermansia muciniphila, 12 h, 2 µM
Description: The drug is tested on Akkermansia muciniphila strain: ATCC BAA-835 for biotransformation. The drug concentrations were measured before and after a 12-h incubation by liquid-chromatography-coupled mass spectrometry (LC–MS)

SMILES	Bacterial Biotransformation [1]	Bacterial Biotransformation [2]	Bacterial Biotransformation [3]	Bacterial Biotransformation [4]	Bacterial Biotransformation [5]	Bacterial Biotransformation [6]	Bacterial Biotransformation [7]	Bacterial Biotransformation [8]	Bacterial Biotransformation [9]	Bacterial Biotransformation [10]	Bacterial Biotransformation [11]	Bacterial Biotransformation [12]
CC(=O)OCC(=O)[C@@]12N=C(C)O[C@@H]1C[C@H]1[C@@H]3CCC4=CC(=O)C=C[C@]4(C)[C@H]3[C@@H](O)C[C@@]12C [DEFLAZACORT]	Compound metabolized	Compound metabolized	Compound metabolized	Compound metabolized	Compound metabolized	Compound NOT metabolized	Compound NOT metabolized	Compound NOT metabolized	Compound NOT metabolized	Compound NOT metabolized	Compound metabolized	Compound metabolized
CC[C@@H](CO)NC(=O)[C@@H]1C=C2c3cccc4c3c(cn4C)C[C@H]2N(C)C1.O=C(O)/C=C\C(=O)O [METHYSERGIDE MALEATE]	Compound metabolized	Compound metabolized	Compound metabolized	Compound metabolized	Compound metabolized	–	–	–	–	–	Compound metabolized	Compound metabolized
COc1ccc2[nH]c([S+]([O-])Cc3ncc(C)c(OC)c3C)nc2c1 (stereo not drawn) [OMEPRAZOLE]	Compound metabolized	Compound metabolized	Compound metabolized	Compound metabolized	Compound metabolized	–	–	–	–	–	Compound metabolized	Compound metabolized
CCOc1ccc2nc(S(N)(=O)=O)sc2c1 [ETHOXZOLAMIDE]	Compound metabolized	Compound metabolized	Compound metabolized	Compound metabolized	Compound metabolized	–	–	–	–	–	Compound metabolized	Compound metabolized
N[C@@H](Cc1ccc(N(CCCl)CCCl)cc1)C(=O)O	Compound metabolized	Compound metabolized	Compound metabolized	Compound metabolized	Compound metabolized	–	–	–	–	–	Compound metabolized	Compound metabolized
CCN(CC)CCOCCOC(=O)C1(c2ccccc2)CCCC1.O=C(O)CC(O)(CC(=O)O)C(=O)O [CARBETAPENTANE CITRATE]	Compound metabolized	Compound metabolized	Compound metabolized	Compound metabolized	Compound metabolized	–	–	–	–	–	Compound metabolized	Compound metabolized
CC[C@H](C)C(=O)O[C@H]1C[C@@H](C)C=C2C=C[C@H](C)[C@H](CC[C@@H]3C[C@@H](O)CC(=O)O3)[C@H]21 [LOVASTATIN]	Compound metabolized	Compound metabolized	Compound NOT metabolized	Compound NOT metabolized	Compound NOT metabolized	–	–	–	–	–	Compound metabolized	Compound NOT metabolized
CCc1oc2ccccc2c1C(=O)c1cc(Br)c(O)c(Br)c1 [BENZBROMARONE]	Compound NOT metabolized	Compound NOT metabolized	Compound NOT metabolized	Compound NOT metabolized	Compound NOT metabolized	–	–	–	–	–	Compound NOT metabolized	Compound NOT metabolized
CC(C(=O)O)c1ccc2c(c1)Cc1cccnc1O2 (stereo not drawn) [PRANOPROFEN]	Compound metabolized	Compound metabolized	Compound metabolized	Compound metabolized	Compound NOT metabolized	–	–	–	–	–	Compound metabolized	Compound metabolized
CC(Oc1c(Cl)cccc1Cl)C1=NCCN1 (stereo not drawn) [LOFEXIDINE]	Compound metabolized	Compound metabolized	Compound metabolized	Compound metabolized	Compound metabolized	–	–	–	–	–	Compound metabolized	Compound metabolized
CC[C@H](C)C(=O)O[C@H]1CCC=C2C=C[C@H](C)[C@H](CC[C@@H]3C[C@@H](O)CC(=O)O3)[C@H]21 [MEVASTATIN]	Compound metabolized	Compound metabolized	Compound metabolized	Compound metabolized	Compound metabolized	–	–	–	–	–	Compound metabolized	Compound metabolized
CCOC(=O)[C@H](CCc1ccccc1)N[C@H]1CCc2ccccc2N(CC(=O)O)C1=O [BENAZEPRIL]	Compound metabolized	Compound NOT metabolized	Compound NOT metabolized	Compound NOT metabolized	Compound NOT metabolized	–	–	–	–	–	Compound metabolized	Compound NOT metabolized
CCN1CCCC1CNC(=O)c1cc(S(=O)(=O)CC)c(N)cc1OC (stereo not drawn) [AMISULPRIDE]	Compound NOT metabolized	Compound NOT metabolized	Compound NOT metabolized	Compound NOT metabolized	Compound NOT metabolized	–	–	–	–	–	Compound NOT metabolized	Compound NOT metabolized
CNC(=C[N+](=O)[O-])NCCSCc1ccc(CN(C)C)o1 [RANITIDINE]	Compound metabolized	Compound metabolized	Compound metabolized	Compound metabolized	Compound metabolized	–	–	–	–	–	Compound NOT metabolized	Compound metabolized
